Read-outs that look alike come from different tables or passages of the source.
Columns and labels:
[1] = system: P388/ADR; experiment: Mouse in vivo antitumor test, P388/ADR transplanted; details: for T/C / average body weight after 10 days / average survival days: P388/ADR
Protocol: 2×10^5 cells of P388 or P388/ADR were inoculated intraperitoneally into each of CDF1 mice (male, each weighing 20 g, 10 animals/group), and from the next day, the test solution was administered at 10, 5, and 1 mg/kg body weight/day respectively by intraperitoneal injection of 200 μl sample at each concentration once a day for 10 successive days. The numbers with time of mice which survived after administration was counted and the average survival days and T/C (survival days of treated mice/survival days of control mice) were calculated. The average body weights after 10 days were also measured.

[2] = Repeated administration toxicity test (intraperitoneal); format: in vivo, mouse (CDF1); details: mouse, in vivo, ip, read-out: Fatality rate
Protocol: As the comparative control, test solutions of adriamycin were prepared in the same manner. […] The number with time of survived animals after administration and the average body weights on Days 0, 5, and 10 were determined.

[3] = system: cytotoxic T cell induction by allogenic immunization; experiment: In vivo mouse cytotoxic T cell induction test; set-up: species or system mouse (C57BL/6)
Protocol: A 8-week-old, female C57BL/6 mouse (H-2^b) was immunized intraperitoneally with 0.2 ml of cultured cell line P815 suspension (5×10^7 cells/ml PBS) derived from DBA/2 (H-2^d), and 0.2 to 0.3 ml of 0.1 mg/ml sample was administered intraperitoneally at a dosage of 1 mg/kg body weight/day for 5 days including the day of immunization.
To measure cytotoxic T cell activity, 100 μl of the effector cell suspension and 100 μl of the target cell suspension were put to each well on a 96-well round-bottomed microplate and incubated at 37° C. for 4 hours, and the cells were centrifuged and the amount of ^51 Cr released into the supernatant was measured and the cytotoxic T cell activity was calculated using the following equation 2:
Cytotoxic T cell activity=A/B×100 (2)
A: (radioactivity of effector cells+target cells)-(radioactivity of only target cells)
B: (radioactivity of target cells treated with 0.1 N HCl)-(radioactivity of only target cells)
The cytotoxic T cell activity was expressed in terms of lytic unit (LU). One LU is defined as the number of effector cells required for 20% lysis of 2×10^4 target cells, and the result is shown in LU per spleen.
Similarly, the mouse was immunized and then administered 0.2 to 0.3 ml of 1 mg/ml of the sample (i.e. at a dosage of 10 mg/kg body weight/day) by intraperitoneal administration for 5 days and the cytotoxic activity was determined.

[4] = Acute toxicity test; details: mouse, in vivo, iv
[5] = system: ICR mice; experiment: Acute toxicity test

COC(CC1C(C)=CCC2C1(C)CCC1C(C)(C)C(O)C(OC3OC(C)C(OC(=O)c4cccc(O)c4)C(OC4OC(CO)C(O)C(O)C4NC(C)=O)C3O)CC12C)C(N)C(=O)O (stereo not drawn) [0406TP-1]
T/C ([1]; 1 mg/kg/day i.p. × 10 days): 130% | average body weight after 10 days ([1]; 1 mg/kg/day i.p. × 10 days): 26.2 g | average survival days ([1]; 1 mg/kg/day i.p. × 10 days): 14.4 days | T/C ([1]; 5 mg/kg/day i.p. × 10 days): 133% | average body weight after 10 days ([1]; 5 mg/kg/day i.p. × 10 days): 27.3 g | average survival days ([1]; 5 mg/kg/day i.p. × 10 days): 14.8 days | T/C ([1]; 10 mg/kg/day i.p. × 10 days): 165% | average body weight after 10 days ([1]; 10 mg/kg/day i.p. × 10 days): 26.4 g | average survival days ([1]; 10 mg/kg/day i.p. × 10 days): 18.3 days | therapeutic effect ([1]; P388/ADR-transplanted mice): significant therapeutic effect | mortality ([2]; 1 mg/kg/day i.p. × 10 days): 0% | mortality ([2]; 5 mg/kg/day i.p. × 10 days): 0% | mortality ([2]; 10 mg/kg/day i.p. × 10 days): 0% | Cytotoxic T cell activity ([3]; 1.0 mg/kg/day × 5 days i.p.): 350 LU/spleen | Cytotoxic T cell activity inhibition ([3]; 1.0 mg/kg/day × 5 days i.p.): 12% | Cytotoxic T cell activity ([3]; 10 mg/kg/day × 5 days i.p.): 285 LU/spleen | Cytotoxic T cell activity inhibition ([3]; 10 mg/kg/day × 5 days i.p.): 38% | inhibition of induction of cytotoxic T cells in spleen cells ([3]; allogenic-immunized mouse, intraperitoneal, in words): inhibit induction of cytotoxic T cells | LD50 at 730 h [4]: > 100 mg/kg | survival ([5]; 100 mg/kg i.v., one month observation): all survived | toxicity and safety ([5]; acute toxicity test, in words): low toxicity

— US5932555A (priority 1997, dated 1999)
